Tested on: P. aphanidermatum cytochrome b gene F129 and L129 alleles
Test: ARMS/Scorpion F129L SNP detection assay (Ct of allele selective primers on plasmid DNA templates)
Set-up: species or system Pythium aphanidermatum
Conditions: for ΔCt: between C and A plasmid template; for ΔCt / A Ct / C Ct: 2×10^6 molecules/ul; for A Ct: mutant (L129) plasmid template; for NTC amplification: no template (water only) control; for C Ct: wild type (F129) plasmid template; for Observed A:C ratio: plasmid templates 2×10^6 molecules/ul
Description: In all ARMS/Scorpion™ F129L SNP detection assays AmpliTaq Gold enzyme (Applied Biosystems) was included in the reaction mixes at 1 unit/25 μl reaction. The reaction mix also contained 1× buffer (10 mM Tris-HCl (pH8.3), 50 mM KCl, 3.5 mM MgCl2, 0.01% gelatine) and 100 μM dNTPs (Amersham Pharmacia Biotech). Amplifications were performed in an ABI Prism 7700 instrument for continuous fluorescence monitoring. A preliminary cycle of 95° C. for 10 minutes was performed followed by 50 cycles of 95° C. for 15 sec and 60° C. for 45 sec. Fluorescence was monitored during the annealing/extension stage throughout all cycles.
Primers were first validated for use in such analyses by using plasmid DNA, at various concentrations, as template. This was performed in order to check the specificity and sensitivity of the primer designs. Partial wild type cytochrome b gene sequence and the corresponding tract containing the F129L mutation amplified from two P. aphanidermatum isolates were cloned into the TA pCR2.1 vector (Invitrogen) as described previously in example 2. 150 ul of the bacterial culture, from the 10 transformants from each cloning event picked for Wizard Plus plasmid DNA Preparations (Promega) (see example 2), was saved prior to carrying out these preparations and stored at 4° C. Following sequence analysis wild type and mutant plasmid DNA samples that contained no sequence differences from the consensus sequence were noted. The bacterial culture from which these wild type and mutant plasmid DNA sequences originated was picked for plasmid DNA maxipreps (Qiagen) following the manufacturers protocol. The resulting plasmid DNA was quantified and diluted to a concentration of 1 ug/ul (2×10^11 molecules/ul) using sterile double distilled H2O.
The wild type and mutant plasmid DNA cassettes were diluted further to a concentration of 10 pg/ul (or 2×10^6 molecules/ul) in double distilled H2O and used as template to validate the specificity of the ARMS primers. Each ARMS primer was tested on wild type and mutant template as well as a no template (water only) control, under the PCR conditions described above. The Pt129-1 and Pt129-4 primers were preferred to the Pt129-2 and Pt129-3 and the Pt129-5 and Pt129-6 primers as duplicate PCRs gave more consistent results and were more specific. Wild type ARMS primer Pt129-1 gave a window of 15.27 cycles before amplification occurred on the inappropriate (mutant) template (FIG. 7). Mutant ARMS primer Pt129-4 gave a window of 16.96 cycles before amplification occurred on the inappropriate (wild type) template (FIG. 8).
Following the selection of a suitable ARMS primer for the detection of the point mutation the assay was validated further, so that its sensitivity of detection was fully understood before it was used to test biological samples for the presence of the L129 mutation. The first validation step was to establish if the window of specificity varied for the chosen ARMS primers over a 6 orders of magnitude range of wild type and mutant template DNA concentration. The wild type and mutant plasmid DNA cassettes described previously were diluted in Bovine Serum Albumin (BSA) (Fraction V Powder minimum 96%, Sigma A9647) at a concentration of 1 mg/ml through a 10 fold dilution series. The template concentrations covered the range 2×10^8 molecules/ul to 2×10^2 molecules/ul. Both plasmid DNA cassettes and a no template (water only) control were tested in the ARMS/Scorpion assay using primers Pt129-1, Pt129-4 and Pt129-S, as described above.
In all ARMS/Scorpion™ F129L SNP detection assays AmpliTaq Gold enzyme (Perkin-Elmer/ABI) was included in the reaction mixes at 1 unit/25 μl reaction. The reaction mix also contained 1× buffer (10 mM Tris-HCl (pH8.3), 50 mM KCl, 3.5 mM MgCl2, 0.01% gelatine) and 100 μM dNTPs (Amersham Pharmacia Biotech). Amplifications were performed in an ABI Prism 7700 instrument for continuous fluorescence monitoring. […]

Substance	ΔCt	A Ct	NTC amplification	C Ct	Observed A:C ratio
Pt129-A1 (DNA ACCCCAAGGTAATACATAACCCAAT; chemistry not given here)	5.79	26.54	none	32.33	–
Pt129-A2 (DNA ACCCCAAGGTAATACATAACCCACT; chemistry not given here)	13.14	20.87	none	34.01	–
Pt129-A3 (DNA ACCCCAAGGTAATACATAACCCAGT; chemistry not given here)	8.91	31.29	none	40.2	–
Pt129-A4 (DNA ACCCCAAGGTAATACATAACCCTTT; chemistry not given here)	14.38	24.42	none	38.8	–
Pt129-A5 (DNA ACCCCAAGGTAATACATAACCCCTT; chemistry not given here)	11.09	21.42	none	32.51	–
Pt129-A6 (DNA ACCCCAAGGTAATACATAACCCGTT; chemistry not given here)	12.17	21.3	none	33.47	–
Pt129-A7 (DNA ACCCCAAGGTAATACATAACTCACT; chemistry not given here)	14.05	36.33	none	22.28	–
Pt129-A8 (DNA ACCCCAAGGTAATACATAACACACT; chemistry not given here)	13.76	35.87	none	22.11	–
Pt129-A9 (DNA ACCCCAAGGTAATACATAACGCACT; chemistry not given here)	14.96	37.1	none	22.14	–
Pt129-A10 (DNA ACCCCAAGGTAATACATAACTCCTT; chemistry not given here)	4.2	31.4	none	27.2	–
Pt129-A11 (DNA ACCCCAAGGTAATACATAACACCTT; chemistry not given here)	6.4	31.25	none	24.85	–
Pt129-A12 (DNA ACCCCAAGGTAATACATAACGCCTT; chemistry not given here)	2.7	30.16	none	27.46	–
Pt129-A13 (DNA ACCCCAAGGTAATACATAACTCGTT; chemistry not given here)	18.8	41.99	none	23.19	–
Pt129-A15 (DNA ACCCCAAGGTAATACATAACGCGTT; chemistry not given here)	–	no C	none	30.05	all A
Pt129-C1 (DNA ACCCCAAGGTAATACATAACCCAAG; chemistry not given here)	16.81	42.6	none	25.79	–
Pt129-C2 (DNA ACCCCAAGGTAATACATAACCCACG; chemistry not given here)	23.15	43.57	none	20.42	–
Pt129-C3 (DNA ACCCCAAGGTAATACATAACCCAGG; chemistry not given here)	–	no A	none	29.7	all C
Pt129-C5 (DNA ACCCCAAGGTAATACATAACCCCTG; chemistry not given here)	22.26	42.36	none	20.1	–
Pt129-C6 (DNA ACCCCAAGGTAATACATAACCCGTG; chemistry not given here)	24.54	44.17	none	19.63	–
Pt129-S6 (DNA TTGACCCCAAGGTAATACATAACTC; chemistry not given here)	–	20.84	none	20.43	–

Source: patent US20050014144A1, “Methods” (priority 2001, published 2005)
